Data from article PMC7076710, “Synthesis, Identification, and Structure–Activity Relationship Analysis of GATA4 and NKX2-5 Protein–Protein Interaction Modulators” (Journal of Medicinal Chemistry, 2019).
Like-named read-outs stand apart in the source and are kept apart here.

Experiments:
Type in all cases: cell-based
[1] = biological target: T1, GATA4 transcriptional activity (Mus musculus, UniProt Q08369); assay: GATA4 luciferase reporter assay (tandem GATA-site reporter, COS-1 cells)
T1 construct: expressed in transfected cells; host or cells: COS-1
T1 sequence (Q08369 whole entry): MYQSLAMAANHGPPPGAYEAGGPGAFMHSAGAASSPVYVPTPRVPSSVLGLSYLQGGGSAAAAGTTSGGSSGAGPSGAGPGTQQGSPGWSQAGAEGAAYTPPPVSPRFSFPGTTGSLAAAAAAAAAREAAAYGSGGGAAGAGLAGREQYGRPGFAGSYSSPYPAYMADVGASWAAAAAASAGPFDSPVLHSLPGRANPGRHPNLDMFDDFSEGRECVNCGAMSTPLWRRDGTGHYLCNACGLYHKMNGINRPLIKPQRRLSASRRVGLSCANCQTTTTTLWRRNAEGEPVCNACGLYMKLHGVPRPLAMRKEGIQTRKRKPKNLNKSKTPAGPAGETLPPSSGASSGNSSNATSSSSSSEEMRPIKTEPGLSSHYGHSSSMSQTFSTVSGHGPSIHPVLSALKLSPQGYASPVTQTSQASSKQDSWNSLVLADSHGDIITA

COS-1 cells [2] = assay: LDH assay (necrosis)
Source text: (§1) To investigate the toxicity as a potential cause of decreased or increased activity in luciferase reporter gene assays, we tested a set of 40 active compounds in the COS-1 cell line used for the luciferase assays. Concentration-dependent toxic effects were investigated using the lactate dehydrogenase (LDH) assay to detect necrosis and the 3-(4,5-dimethylthiazol-2-yl)-2,5-diphenyltetrazolium bromide (MTT) assay as a measure of cell viability. […] For the data analysis, compounds were classified as toxic (Figures 5 and 7) if they induced a >10% decrease in cell viability in the MTT assay at the concentration of 10 μM. The most toxic compounds (35a, 35d, 54, 58, and 63–65) in the MTT assay all contained a phenyl substituent in the southern part ring, while the ortho-nitrophenyl-derivative 39g and the phenyl-substituted thiophene 47t were nontoxic. Higher flexibility in the central parts of the ethers (35a, 35d) and N-acylated amines (58, 64) might contribute to their toxicity, because less rigid compounds are more likely to have affinity to various biological targets. Such interactions can cause toxicity. To confirm and validate the results from MTT assays, we tested three nontoxic (2, 47s, and 72) and three toxic (1, 35a, and 58) compounds in a cell viability assay measuring intracellular ATP content.
(§2) Figure 5 Effects of selected compounds on COS-1 cell viability. (A) Compound-induced necrosis was quantified with the LDH assay after a 24-h compound exposure. The data are presented as cytotoxicity percentage (% of maximal LDH release). (B) Cell viability was analyzed with the MTT assay after a 24-h compound exposure. (A,B) The data are means from 2–3 independent experiments with 3 replicate wells in each and are presented as % of control (vehicle-treated cells). The compounds have been grouped on the basis of the structure of the central part: a, amide; b, ether; c, N-acylated amine; d, amine; and e, imine. (C) The effects of selected compounds on cell viability as determined by ATP content after a 24-h compound exposure. The data are mean + SEM from three independent experiments and are presented as % of vehicle-treated cells.
(§3) For toxicity screening, COS-1 cells were cultured in DMEM (Sigma-Aldrich, Steinheim, Germany) supplemented with 10% fetal bovine serum, 100 U/mL penicillin, and 100 μg/mL streptomycin (all from Gibco, Thermo Scientific) at 37 °C with 5% CO2. The cells were plated on 96-well plates at 10 000 cells/well and exposed to test compounds at a concentration range of 1–30 μM on the following day. After a 24-h compound treatment, lactate dehydrogenase (LDH) and 3-(4,5-dimethylthiazol-2-yl)-2,5-diphenyltetrazolium bromide (MTT) assays were carried out as described previously.[48] Briefly, LDH activity was determined from 50 μL samples of cell culture medium, to which 50 μL of substrate solution [1.3 mM β-nicotinamide-adenine dinucleotide, 660 μM iodonitrotetrazolium, 54 mM L(+)-lactic acid, and 280 μM phenazine methosulfate in 0.2 M Tris-HCl, pH 8.2, all from Sigma-Aldrich] was added, and the plate was incubated for 30 min at room temperature. The reaction was stopped with acetic acid (final concentration 333 mM), and absorbance was measured at 490 nm. The absorbance values of the samples were normalized to maximal LDH release and spontaneous LDH release determined on the same plate. Mitochondrial metabolic activity was quantified by incubating the cells with 0.5 mg/mL MTT (from Sigma-Aldrich) for 2 h at 37 °C with 5% CO2, whereafter culture medium was removed and formazan crystals were dissolved in DMSO. The absorbance was measured at 550 nm, and absorbance at 650 nm was subtracted as background.

[3] = biological target: T2, GATA4–NKX2-5 transcriptional synergy (Mus musculus, UniProt P42582+Q08369); assay: GATA4–NKX2-5 transcriptional synergy luciferase reporter assay (3xNKE reporter, COS-1 cells); details: COS-1
T2 construct: expressed in transfected cells; host or cells: COS-1
T2 sequence (Q08369 whole entry): as above
T2 sequence (P42582 whole entry): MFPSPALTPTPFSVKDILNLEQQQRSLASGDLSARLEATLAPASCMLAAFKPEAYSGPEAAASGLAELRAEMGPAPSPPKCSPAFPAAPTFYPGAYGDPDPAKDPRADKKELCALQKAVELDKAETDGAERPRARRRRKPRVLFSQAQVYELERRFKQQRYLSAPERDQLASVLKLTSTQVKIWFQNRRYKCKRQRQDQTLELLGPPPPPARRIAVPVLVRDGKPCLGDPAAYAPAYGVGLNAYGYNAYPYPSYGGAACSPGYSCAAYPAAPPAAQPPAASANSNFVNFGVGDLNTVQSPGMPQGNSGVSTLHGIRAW

[4] = biological target: T3, NKX2-5 transcriptional activity (Mus musculus, UniProt P42582); assay: NKX2-5 luciferase reporter assay (3xNKE reporter, COS-1 cells); details: COS-1; for activity at 3 µM: read-out: NKX.3µM
T3 construct: expressed in transfected cells; host or cells: COS-1
T3 sequence (P42582 whole entry): as above

COS-1 cells [5] = assay: MTT assay (cell viability); details: for MTT.1µM / MTT.3µM / MTT.10µM / MTT.30µM: cell viability; for toxicity class in the MTT assay: 24-h exposure, classified at 10 μM
Source text: as §1, §2, §3

[6] = COS-1, luciferase reporter activity relative to control
[7] = luciferase reporter activity relative to control
[8] = luciferase reporter activity, % of control

Compound | activity at 3 µM [1, 6] | LDH.1µM (COS-1 cells [2]) | LDH.3µM (COS-1 cells [2]) | LDH.10µM (COS-1 cells [2]) | LDH.30µM (COS-1 cells [2]) | activity at 3 µM [3, 7] | activity at 3 µM [4, 7] | MTT.1µM (COS-1 cells [5]) | MTT.3µM (COS-1 cells [5]) | MTT.10µM (COS-1 cells [5]) | MTT.30µM (COS-1 cells [5]) | other results
C=CCN(Cc1ccc(N(CC)CC)cc1)c1c(-c2ccccc2)noc1C [Compound 30b] | 82.8% | -1.6 | -0.27 | 1.75 | 3.61 | 84.5% | 97.2% | 104.18 | 97.12 | 96.41 | 84.34 | 
CCN(CC)c1ccc(CN(C(=O)C(F)(F)F)c2c(-c3ccccc3)noc2C)cc1 [Compound 30c] | 92.4% | 1.2 | 0 | -0.99 | -1.08 | 100% | 113% | 100.8 | 97.78 | 91.24 | 75.4 | 
CCN(CC)c1ccc(CNc2c(-c3ccccc3)noc2C)cc1 [Compound 33, N-[4-(Diethylamino)benzyl]-5-methyl-3-phenylisoxazol-4-amine] | 114% | 2.57 | 2.98 | 2.01 | 0.31 | 97.5% | 99% | 111.17 | 102.56 | 104.2 | 96.47 | 
CC(=O)COC(=O)c1ccc(OCc2c(-c3ccccc3)noc2C)cc1 [Compound 35d] | 65.3% | -0.61 | -0.5 | -0.15 | -0.05 | 51.3% | 56.8% | 81.99 | 73.26 | 64.91 | 61.12 | toxicity class in the MTT assay (COS-1 cells [5]): most toxic
CCN(CC)c1ccc(NC(=O)c2c(-c3ccncc3)noc2C)cc1 [Compound 39c] | 94% | 0.58 | 0.49 | -0.99 | -0.68 | 81.1% | 100% | 105.77 | 106.28 | 90.58 | 90.91 | 
CCN(CC)c1ccc(NC(=O)c2c(-c3ccc(F)cc3)noc2C)cc1 [Compound 39d, N-[4-(Diethylamino)phenyl]-3-(4-fluorophenyl)-5-methylisoxazole-4-carboxamide] |  |  |  |  |  |  |  |  |  |  |  | activity at 3 µM ([1]; COS-1, luciferase reporter activity, % of control): 94.4%; LDH.1µM (COS-1 cells [2]; COS-1 cells): 3.12; LDH.3µM (COS-1 cells [2]; COS-1 cells): -0.19; LDH.10µM (COS-1 cells [2]; COS-1 cells): -0.49; LDH.30µM (COS-1 cells [2]; COS-1 cells): 2.51; activity at 3 µM [3, 8]: 61.4%; activity at 3 µM [4, 8]: 73.3%; MTT.1µM (COS-1 cells [5]; COS-1 cells): 99.41%; MTT.3µM (COS-1 cells [5]; COS-1 cells): 97.69%; MTT.10µM (COS-1 cells [5]; COS-1 cells): 91.72%; MTT.30µM (COS-1 cells [5]; COS-1 cells): 87.25%
CCN(CC)c1ccc(NC(=O)c2c(-c3ccsc3)noc2C)cc1 [Compound 39m] | 103% | -0.35 | 0.79 | -1.72 | -1.23 | 87.2% | 122% | 102.49 | 98.85 | 88.28 | 82.62 | 
CCN(CC)c1ccc(NC(=O)c2cnc3ncccn23)cc1 [Compound 47aa] | 108% | 1.59 | 1 | 1.6 | -0.51 | 101% | 112% | 101.8 | 103.86 | 99.76 | 95.63 | GATA4 (% of control) Mean ± SD ([1]; 10 μM, COS-1 cells, 24 h): 130 % of control; activity at 10 µM ([1]; COS-1, 10 µM, luciferase reporter activity relative to control): 132%; activity at 10 µM [3, 7]: 144%; activity at 10 µM ([4]; 10 µM, luciferase reporter activity relative to control, read-out: NKX.10µM): 118%
CCN(CC)c1ccc(NC(=O)c2cnoc2-c2ccccc2)cc1 [Compound 47d] | 95.2% | 3.03 | 0.88 | -0.44 | 0.42 | 65.4% | 56.3% | 107.01 | 95.86 | 90.87 | 93.95 | 
CCN(CC)c1ccc(NC(=O)c2csc(C)c2-c2ccccc2)cc1 [Compound 47t] | 74.4% | 0.5 | 1.08 | 0.5 | 2.38 | 61.5% | 55.2% | 106.87 | 104.76 | 104.28 | 99.24 | toxicity class in the MTT assay (COS-1 cells [5]): nontoxic (nontoxic compounds (cell viability >90%))
CCN(CC)c1ccc(NC(=O)c2csc([N+](=O)[O-])c2)cc1 [Compound 47u] | 28.7% | 7.78 | 6.19 | 2.98 | 1.83 | 32.3% | 37.8% | 105.56 | 102.26 | 97.2 | 88.36 | activity at 10 µM [3, 7]: 24.5%
